Like-named read-outs stand apart in the source and are kept apart here.
Key:
[1] = molecular target: T1, bacterial PDF (peptide deformylase), enzyme from S. aureus (Staphylococcus aureus, UniProt P68826); experiment: Bacterial peptide deformylase (PDF) assay, enzyme from S. aureus; assay type: biochemical
T1 sequence (P68826 1-183): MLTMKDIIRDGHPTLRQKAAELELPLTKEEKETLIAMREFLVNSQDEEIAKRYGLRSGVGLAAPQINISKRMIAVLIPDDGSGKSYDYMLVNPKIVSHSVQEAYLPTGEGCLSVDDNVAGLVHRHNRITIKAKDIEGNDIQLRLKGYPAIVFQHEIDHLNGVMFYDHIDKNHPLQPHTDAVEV
Method: (§1) The IC50 value of a compound of the invention as a bacterial PDF inhibitor was determined using the following assay.
(§2) Assay buffer (pH 7.2): 0.1 M MOPS pH was adjusted to 7.2 with NaOH, containing 0.25 M NaCl, 100 microgram/mL catalase and 1 mg/mL BSA.
(§3) Enzyme mix: 670 ng/mL of enzyme (to finally have 50 ng of enzyme per well).
(§4) Substrate: 10 mM f-Met-Ala was made up from 200 mM f-Met-Ala in methanol with assay buffer.
(§5) TNBS solution: Freshly dilute 1 M TNBS stock solution to 1:10 with water.
(§6) Buffer C: 0.5 M borate buffer adjusted to pH 9.5 with NaOH.
(§7) Buffer D: 0.2 ml of freshly prepared 0.5 M Na2SO3 was mixed with 9.8 mL of 0.5M NaH2PO4.
(§8) Inhibitor solution: 2 mM Sodium 4-(hydroxymercurio) benzoate in assay buffer.
(§9) The assay was performed in a 96 Microtiter plate containing test compound. To each well containing test compound mix was added 75 microliter of enzyme mix from E. coli followed, by the addition of 25 microliter of substrate mix. The resulting mix was incubated for 30 minutes at room temperature with shaking. TNBS solution (50 microliter/well) was added and the resulting mixture was incubated for 15 minutes under shaking. Buffer C was then added (20 microliter/well). After incubating at room temperature for 15 minutes under shaking, buffer D was added (50 microliter/well). The optical […] was then measured at 420 nm, thereby determining the IC50 value.
The assay was repeated using enzyme mix from S. aureus.

[2] = molecular target: bacterial PDF (peptide deformylase), enzyme from E. coli (Escherichia coli, UniProt P0A6K3); experiment: Bacterial peptide deformylase (PDF) assay, enzyme from E. coli; assay type: biochemical
Method: as §1, §2, §3, §4, §5, §6, §7, §8, §9

[3] = PDF enzyme from S. aureus, substrate f-Met-Ala, TNBS readout at 420 nm, read-out: IC50 (enzyme from S. aureus)

Sequence of bacterial PDF (peptide deformylase), enzyme from E. coli (P0A6K3 whole entry): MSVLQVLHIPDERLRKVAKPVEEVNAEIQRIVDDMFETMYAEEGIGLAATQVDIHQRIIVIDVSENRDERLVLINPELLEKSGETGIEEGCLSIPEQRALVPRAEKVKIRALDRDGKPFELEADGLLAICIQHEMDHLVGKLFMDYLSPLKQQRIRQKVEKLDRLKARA

Structure (SMILES) | IC50 [1, 3] | IC50 [2] | IC50 [1] | IC50 ([2]; PDF enzyme from E. coli, substrate f-Met-Ala, TNBS readout at 420 nm, read-out: IC50 (enzyme from E. coli))
CCN1CC(CC(=O)NO)S(=O)(=O)c2ccc(C(=O)NCc3cccc([N+](=O)[O-])c3)cc21 (centres unmarked) [Example 19, 4-Ethyl-2-hydroxycarbamoylmethyl-1,1-dioxo-1,2,3,4-tetrahydro-1λ^6-benzo[1,4]thiazine-6-carboxylic acid 3-nitro-benzylamide] | 11.9 µM | 3.3 µM | – | –
CCCCN1CC(CC(=O)NO)Sc2ccccc21 (centres unmarked) [Example 7, 2-(4-Butyl-3,4-dihydro-2H-benzo[1,4]thiazin-2-yl)-N-hydroxy-acetamide] | 35.5 µM | 22 µM | – | –
CCN1CC(CC(=O)NO)S(=O)(=O)c2ccc(C(=O)NCc3cccs3)cc21 (centres unmarked) [Example 29, 4-Ethyl-2-hydroxycarbamoylmethyl-1,1-dioxo-1,2,3,4-tetrahydro-1λ^6-benzo[1,4]thiazine-6-carboxylic acid (thiophen-2-ylmethyl)-amide] | 3.4 µM | 9.5 µM | – | –
O=C(CC1CN(Cc2cccc(F)c2)c2ccccc2S1(=O)=O)NO (centres unmarked) [Example 10, 2-[4-(3-Fluoro-benzyl)-1,1-dioxo-1,2,3,4-tetrahydro-1λ^6-benzo[1,4]thiazin-2-yl]-N-hydroxy-acetamide] | 28.4 µM | 27.7 µM | – | –
CCN1CC(CC(=O)NO)S(=O)(=O)c2ccc(C(=O)Nc3nccs3)cc21 (centres unmarked) [Example 31, 4-Ethyl-2-hydroxycarbamoylmethyl-1,1-dioxo-1,2,3,4-tetrahydro-1λ^6-benzo[1,4]thiazine-6-carboxylic acid thiazol-2-ylamide] | 20.8 µM | 12.3 µM | – | –
CCN1CC(CC(=O)NO)S(=O)(=O)c2ccc(C(=O)NC3CC4CCC(C3)N4C)cc21 (centres unmarked) [Example 34] | – | – | 6 µM | 13.8 µM
CCN1CC(CC(=O)NO)S(=O)(=O)c2ccc(C(=O)NCc3ccccc3[N+](=O)[O-])cc21 (centres unmarked) [Example 18, 4-Ethyl-2-hydroxycarbamoylmethyl-1,1-dioxo-1,2,3,4-tetrahydro-1λ^6-benzo[1,4]thiazine-6-carboxylic acid 2-nitro-benzylamide] | 11.3 µM | 17.6 µM | – | –
CCN1CC(CC(=O)NO)S(=O)(=O)c2ccc(C(=O)NCc3ccc(OC)cc3)cc21 (centres unmarked) [Example 23, 4-Ethyl-2-hydroxycarbamoylmethyl-1,1-dioxo-1,2,3,4-tetrahydro-1λ^6-benzo[1,4]thiazine-6-carboxylic acid 4-methoxy-benzylamide] | 13.1 µM | 4.9 µM | – | –
CCCN1CC(CC(=O)NO)Sc2ccccc21 (centres unmarked) [Example 5, N-Hydroxy-2-(4-propyl-3,4-dihydro-2H-benzo[1,4]thiazin-2-yl)-acetamide] | 8.5 µM | 7 µM | – | –
CCN1CC(CC(=O)NO)S(=O)(=O)c2ccc(C(=O)NCc3ccccc3)cc21 (centres unmarked) [Example 11, 4-Ethyl-2-hydroxycarbamoylmethyl-1,1-dioxo-1,2,3,4-tetrahydro-1λ^6-benzo[1,4]thiazine-6-carboxylic acid benzylamide] | 8.9 µM | 17.6 µM | – | –

Reference: patent US20090093468A1, “Peptide Deformylase Inhibitors” (priority 2004, published 2009)
